Molecules are shown by their SMILES.

Holding throughout (format): cell-based
Test [1] has as its target T1, LPAR1 (Homo sapiens, UniProt Q92633).
T1 construct: host or cells: U2OS
The test can be described thus: LPAR1 FLIPR Assay. Conditions: U2OS cells stably expressing LPAR1, LPA (EC80), Calcium 6 FLIPR dye; for Emax: read-out: Maximum Inhibition. In short, it runs like this:
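Calcium flux read-out (515-575 nm, FLIPR) in LPAR1-expressing U2OS cells after LPA challenge at EC80, given 3 min after compound addition; cells carried Calcium 6 dye loaded 2 h at 37° C. Eleven-point 3-fold dilutions were fitted with a four-parameter Hill equation for IC50.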

Test [2] concerns LPA-induced MCP-1 in NRK-49F cells. As to the kind of experiment: LPA-induced MCP-1 AlphaLISA assay. The note with it: Rattus norvegicus, final LPA 10 μM, 7 hours; for Emax: read-out: Maximum Inhibition. In short, it runs like this:
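NRK-49F rat fibroblasts, serum-starved overnight, pretreated with compound for 30 min at 37 °C (1% DMSO final), then stimulated with 10 μM LPA final. MCP-1 in the supernatant was measured by mouse/rat CCL2 AlphaLISA. IC50 values came from four-parameter logistic fits of the ratio data.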
On the technique in general: Alpha assays give light when donor and acceptor beads are brought close together.

The target of test [3] is T1, LPAR1. The test can be described thus: IP-One HTRF Assay. The note with it: U2OS cells stably expressing LPAR1, LPA stimulation, IP-One Tb HTRF kit; for Emax: read-out: Maximum Inhibition. Put shortly: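 U2OS cells stably expressing LPAR1 were preincubated with compound (11-point 3-fold series from 2 mM DMSO stock) for 20 min at 37 °C, then stimulated with LPA for 2 h at 37 °C. IP1 accumulation was read by IP-One HTRF (665/615 nm ratio). IC50 came from four-parameter logistic Hill fits.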
A general note: Time-resolved FRET reads energy transfer from a long-lived donor to a nearby acceptor.

T1 sequence (Q92633 whole entry): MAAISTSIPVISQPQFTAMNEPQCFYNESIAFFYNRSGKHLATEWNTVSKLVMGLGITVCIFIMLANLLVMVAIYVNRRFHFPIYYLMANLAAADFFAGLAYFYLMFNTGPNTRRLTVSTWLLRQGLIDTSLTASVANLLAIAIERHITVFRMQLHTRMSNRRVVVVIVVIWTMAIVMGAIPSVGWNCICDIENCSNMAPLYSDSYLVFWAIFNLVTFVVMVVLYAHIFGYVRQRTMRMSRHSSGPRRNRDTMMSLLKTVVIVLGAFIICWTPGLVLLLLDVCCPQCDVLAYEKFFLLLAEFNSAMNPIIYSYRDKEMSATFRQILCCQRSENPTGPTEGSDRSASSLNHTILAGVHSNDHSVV

The IC50 is the midpoint of a concentration-inhibition curve. For `COc1cc(C(=O)N(CCCc2cccc(Cl)c2)CCSCC(=O)O)cc(OC)c1C` [Example 122, [(2-{[3-(3-chlorophenyl)propyl](3,5-dimethoxy-4-methylbenzoyl)amino}ethyl)sulfanyl]acetic Acid], the results for the IC50 (on LPAR1 [1]; in test [2]; against LPAR1 [3]) were 0.01 µM, 0.419 µM and 0.134 µM, respectively. Besides, the Emax at LPAR1 [1] was 95%; in test [2], 97%; at LPAR1 [3], 78%.

On to `COc1cc(C(=O)N(CCCCC(=O)O)CCCc2ccc(Cl)o2)cc(OC)c1C` [Example 185, 5-{[3-(5-chlorofuran-2-yl)propyl](3,5-dimethoxy-4-methylbenzoyl)amino}pentanoic Acid], for which the IC50 on LPAR1 [1] was found to be 0.013 µM; in test [2], 0.536 µM; at LPAR1 [3], 0.325 µM. Besides, the Emax at LPAR1 [1] turned out to be 91%; in test [2], 84%; on LPAR1 [3] it was 73%.

Regarding `COc1cc(C(=O)N(CCCc2ccccc2)CCCC(C)(O)C(=O)O)cc(OC)c1C` (stereo not drawn) [Example 155, 5-[(3,5-dimethoxy-4-methylbenzoyl)(3-phenylpropyl)amino]-2-hydroxy-2-methylpentanoic Acid], the IC50 at LPAR1 [1] was found to be 0.027 µM; in test [2], 0.763 µM; at LPAR1 [3], 0.663 µM. The Emax at LPAR1 [1] was 90%; in test [2], 81%; at LPAR1 [3] it was 83%.

As to `COc1cc(C(=O)N(CCCc2ccccc2)CCSC(C)CC(=O)O)cc(OC)c1C` (stereo not drawn) [Example 62, 3-({2-[(3,5-dimethoxy-4-methylbenzoyl)(3-phenylpropyl)amino]ethyl}sulfanyl)butanoic Acid], the IC50 stood at 0.029 µM at LPAR1 [1], 0.184 µM in test [2] and 0.291 µM at LPAR1 [3]. The Emax on LPAR1 [1] came out at 97%; in test [2] it was 94%; at LPAR1 [3], 75%.

For `COc1cc(C(=O)N(CCCc2ccccc2)CCSCCC(=O)O)cc(OC)c1C` [Example 60, 3-({2-[(3,5-dimethoxy-4-methylbenzoyl)(3-phenylpropyl)amino]ethyl}sulfanyl)propanoic Acid], the IC50 at LPAR1 [1] worked out at 0.02 µM; in test [2] it was 1.55 µM; at LPAR1 [3], 0.208 µM. The Emax at LPAR1 [1] came out at 95%; in test [2], 84%; on LPAR1 [3], 82%.

Take `COc1cc(C(=O)N(CCCCC(=O)O)CCCc2ccccc2F)cc(OC)c1C` [Example 32, 5-{(3,5-dimethoxy-4-methylbenzoyl)[3-(2-fluorophenyl)propyl]amino}pentanoic Acid]: the values for the IC50 (at LPAR1 [1]; in test [2]; at LPAR1 [3]) were 0.018 µM, 0.473 µM and 0.321 µM, respectively. The Emax is 98% at LPAR1 [1], 89% in test [2] and 88% at LPAR1 [3].

With `COc1cc(C(=O)N(CCCCC(=O)NS(C)(=O)=O)CCCc2ccccc2)cc(OC)c1C` [Example 111, N-{5-[(methanesulfonyl)amino]-5-oxopentyl}-3,5-dimethoxy-4-methyl-N-(3-phenylpropyl)benzamide], the IC50 on LPAR1 [1] was 0.028 µM; in test [2] it was 0.787 µM; against LPAR1 [3], 0.57 µM. The Emax at LPAR1 [1] is 95%; in test [2] it was 91%; at LPAR1 [3], 80%.

For `COc1cc(C(=O)N(CCCc2ccccc2)CCCC(C)(C)C(=O)O)cc(OC)c1C` [Example 57, 5-[(3,5-dimethoxy-4-methylbenzoyl)(3-phenylpropyl)amino]-2,2-dimethylpentanoic Acid], the IC50 at LPAR1 [1] amounted to 0.035 µM; in test [2], 0.039 µM; against LPAR1 [3], 0.062 µM. The Emax on LPAR1 [1] was determined as 100%; in test [2], 97%; at LPAR1 [3], 95%.

Regarding `COc1cc(C(=O)N(CCCCC(=O)O)CCCc2cccc(Cl)c2)cc(OC)c1C` [Example 38, 5-{[3-(3-chlorophenyl)propyl](3,5-dimethoxy-4-methylbenzoyl)amino}pentanoic Acid], the IC50 amounted to 0.014 µM on LPAR1 [1], 0.108 µM in test [2] and 0.194 µM at LPAR1 [3]. The Emax at LPAR1 [1] amounted to 99%; in test [2], 91%; at LPAR1 [3], 90%.

With `COc1ccc(C2(C(=O)N(CCCc3ccccc3)CCSCC(=O)O)CC2)cc1` [Example 115, [(2-{[1-(4-methoxyphenyl)cyclopropane-1-carbonyl](3-phenylpropyl)amino}ethyl)sulfanyl]acetic Acid], the half-inhibitory concentration (IC50) turned out to be 0.03 µM on LPAR1 [1], 3.54 µM in test [2] and 2.91 µM at LPAR1 [3]. Also, the Emax at LPAR1 [1] amounted to 78%; in test [2] it was 67%; on LPAR1 [3], 71%.

`COc1cc(C(=O)N(CCCc2cccc(F)c2)CCOCC(=O)O)cc(OC)c1C` [Example 129, (2-{(3,5-dimethoxy-4-methylbenzoyl)[3-(3-fluorophenyl)propyl]amino}ethoxy)acetic Acid]: the IC50 at LPAR1 [1] was 0.02 µM; in test [2] it was 0.968 µM; against LPAR1 [3], 1.31 µM. In addition, the Emax was 93% on LPAR1 [1], 90% in test [2] and 96% at LPAR1 [3].

In the case of `COc1cc(C(=O)N(CCCCC(=O)O)CCCc2ccco2)cc(OC)c1C` [Example 173, 5-{(3,5-dimethoxy-4-methylbenzoyl)[3-(furan-2-yl)propyl]amino}pentanoic Acid], the values for the IC50 (on LPAR1 [1]; in test [2]; at LPAR1 [3]) were 0.029 µM, 4.54 µM and 0.523 µM, respectively. Besides, the figures for the Emax (at LPAR1 [1]; in test [2]; on LPAR1 [3]) were 74%, 64% and 75%, respectively.

In the case of `COc1cc(C(=O)N(CCCCC(=O)O)CCCc2ccc(F)cc2)cc(OC)c1C` [Example 34, 5-{(3,5-dimethoxy-4-methylbenzoyl)[3-(4-fluorophenyl)propyl]amino}pentanoic Acid], the IC50 on LPAR1 [1] was 0.024 µM; in test [2], 0.786 µM; on LPAR1 [3], 0.88 µM. The Emax at LPAR1 [1] stood at 96%; in test [2], 77%; on LPAR1 [3] it was 70%.

Take `COc1cc(C(=O)N(CCCc2ccccc2)CCOCC(=O)O)cc(OC)c1C` [Example 6, {2-[(3,5-dimethoxy-4-methylbenzoyl)(3-phenylpropyl)amino]ethoxy}acetic Acid]: the half-inhibitory concentration (IC50) turned out to be 0.011 µM at LPAR1 [1], 0.723 µM in test [2] and 0.183 µM against LPAR1 [3]. For the same compound, the figures for the Emax (at LPAR1 [1]; in test [2]; on LPAR1 [3]) were 94%, 80% and 97%, respectively.

On to `COc1cc(C(=O)N(CCCc2ccccc2F)CCOCC(=O)O)cc(OC)c1C` [Example 110, (2-{(3,5-dimethoxy-4-methylbenzoyl)[3-(2-fluorophenyl)propyl]amino}ethoxy)acetic Acid], for which the values for the IC50 (at LPAR1 [1]; in test [2]; on LPAR1 [3]) were 0.016 µM, 1.26 µM and 0.902 µM, respectively. Moreover, the figures for the Emax (at LPAR1 [1]; in test [2]; on LPAR1 [3]) were 90%, 83% and 82%, respectively.

For `COc1cc(C(=O)N(CCCc2ccc(C)o2)CCSCC(=O)O)cc(OC)c1C` [Example 132, [(2-{(3,5-dimethoxy-4-methylbenzoyl)[3-(5-methylfuran-2-yl)propyl]amino}ethyl)sulfanyl]acetic Acid], the IC50 at LPAR1 [1] was 0.01 µM; in test [2] it was 0.783 µM; against LPAR1 [3] it was 0.22 µM. The Emax at LPAR1 [1] is 86%; in test [2] it was 80%; on LPAR1 [3], 80%.

As for `COc1cc(C(=O)N(CCCc2ccccc2Cl)CCOCC(=O)O)cc(OC)c1C` [Example 131, (2-{[3-(2-chlorophenyl)propyl](3,5-dimethoxy-4-methylbenzoyl)amino}ethoxy)acetic Acid], the values for the IC50 (on LPAR1 [1]; in test [2]; against LPAR1 [3]) were 0.021 µM, 1.73 µM and 1.48 µM, respectively. For the same compound, the figures for the Emax (at LPAR1 [1]; in test [2]; at LPAR1 [3]) were 86%, 71% and 101%, respectively.

Consider `COc1cc(C(=O)N(CCCc2ccccc2)CCSCC(=O)O)cc(OC)c1C` [Example 44, ({2-[(3,5-dimethoxy-4-methylbenzoyl)(3-phenylpropyl)amino]ethyl}sulfanyl)acetic Acid], for which the values for the IC50 (on LPAR1 [1]; in test [2]; on LPAR1 [3]) were 0.008 µM, 0.41 µM and 0.223 µM, respectively. Also, the Emax on LPAR1 [1] was 96%; in test [2], 91%; on LPAR1 [3], 80%.

As to `COc1cc(C(=O)N(CCCc2ccccc2)CCOCC(=O)NS(C)(=O)=O)cc(OC)c1C` [Example 157, N-(2-{2-[(methanesulfonyl)amino]-2-oxoethoxy}ethyl)-3,5-dimethoxy-4-methyl-N-(3-phenylpropyl)benzamide], the IC50 at LPAR1 [1] is 0.016 µM; in test [2] it was 0.46 µM; against LPAR1 [3], 0.92 µM. The Emax on LPAR1 [1] came out at 92%; in test [2] it was 77%; on LPAR1 [3] it was 75%.

The values above are taken from patent US20190119200A1, “TERTIARY AMIDES AND METHOD OF USE” (AbbVie Inc., priority 2016, published 2019).
